Experimental data as given in PubChem BioAssay AID256 (DTP/NCI, 2004).
Inconclusive results and toxic doses are left out. Rule for the calls: active = survival T/C of 150% or more; inactive = T/C below 125% in these data.

Test system: CD2F1 mice, L1210 leukemia ip, survival T/C
Experiment: NCI In Vivo Anticancer Drug Screen. Data for tumor model L1210 Leukemia (intraperitoneal) in CD2F1 (CDF1) mice
Details: endpoint: mean survival time, higher = longer survival
How it was run: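 Read-out first: treated-group measurement over vehicle-control measurement, expressed as a ratio. Animals bore a transplanted tumor line and were dosed with compound or vehicle.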

Measured: T/C

CSc1nc(NC(C)C)nc(NC(C)C)n1
inactive: dose: 50.0 mg/kg/injection, schedule: Q01DX009 (ip), vehicle: saline with Tween-80 117 % of control | dose: 100.0 mg/kg/injection, schedule: Q01DX009 (ip), vehicle: saline with Tween-80 109 % of control | dose: 100.0 mg/kg/injection, schedule: Q04DX003 (ip), vehicle: saline 92 % of control | dose: 200.0 mg/kg/injection, schedule: Q01DX009 (ip), vehicle: saline with Tween-80 111 % of control | dose: 200.0 mg/kg/injection, schedule: Q04DX003 (ip), vehicle: saline 103 % of control
